Source: patent US12478617B2, “Lipidated peptide inhibitors of interleukin-23 receptor” (JANSSEN BIOTECH, INC., priority 2021, dated 2025)
Read-outs that look alike come from different tables or passages of the source.

Conditions: disulfide bond, 20-membered ring, I2/AcOH, ACN/H2O

CC(=O)NCCCC[C@@H]1NC(=O)[C@H](Cc2c[nH]c3c(C)cccc23)NC(=O)[C@H]([C@@H](C)O)NC(=O)[C@H](CC(N)=O)NC(=O)[C@@H](NC(=O)[C@@H](CCCCNC(=O)COCCOCCNC(=O)COCCOCCNC(=O)CC[C@H](NC(=O)CCCCCCCCCCCCCCCCC(=O)O)C(=O)O)NC(C)=O)C(C)(C)SSC(C)(C)[C@@H](C(=O)N[C@@H](Cc2ccc(OCCN)cc2)C(=O)N[C@@H](Cc2ccc3ccccc3c2)C(=O)NC2(C(=O)N[C@@H](CCCCNC(C)=O)C(=O)N[C@@H](CC(N)=O)C(=O)N[C@@H](Cc3cccnc3)C(=O)N(C)CC(N)=O)CCOCC2)NC1=O
ring closure, yield after HPLC (from Ac-dLys(PEG2PEG2gEC18OH)-Pen-Asn-Thr-7MeTrp-Lys(Ac)-Pen-AEF-2Nal-THP-Lys(Ac)-Asn-3Pya-Sar-NH2, […]): 28%

CC(=O)NCCCC[C@@H]1NC(=O)[C@H](Cc2c[nH]c3c(C)cccc23)NC(=O)[C@H]([C@@H](C)O)NC(=O)[C@H](CC(N)=O)NC(=O)[C@@H](NC(=O)[C@@H](CCCCNC(=O)COCCOCCNC(=O)COCCOCCNC(=O)CC[C@H](NC(=O)CCCCCCCCCCCCCCCCC(=O)O)C(=O)O)NC(C)=O)C(C)(C)SSC(C)(C)[C@@H](C(=O)N[C@@H](Cc2ccc(OCCN)cc2)C(=O)N[C@@H](Cc2ccc3ccccc3c2)C(=O)NC2(C(=O)N[C@@H](CCCCNC(C)=O)C(=O)N[C@@H](CC(N)=O)C(=O)N[C@@H](Cc3cccnc3)C(=O)N(CC(N)=O)Cc3ccc(C(N)=O)cc3)CCOCC2)NC1=O
ring closure, yield after HPLC (from Ac-dLys(PEG2PEG2gEC18OH)-Pen-Asn-Thr-7MeTrp-Lys(Ac)-Pen-AEF-2Nal-THP-Lys(Ac)-Asn-3Pya-N(4AmBenzyl)Gly-NH2, 1.72 mM): 26.8%

CC(=O)NCCCC[C@@H]1NC(=O)[C@H](Cc2c[nH]c3c(C)cccc23)NC(=O)[C@H]([C@@H](C)O)NC(=O)[C@H](CC(N)=O)NC(=O)[C@@H](NC(=O)[C@@H](CCCCNC(=O)COCCOCCNC(=O)COCCOCCNC(=O)CC[C@H](NC(=O)CCCCCCCCCOc2cccc(C(=O)O)c2)C(=O)O)NC(C)=O)C(C)(C)SSC(C)(C)[C@@H](C(=O)N[C@@H](Cc2ccc(OCCN)cc2)C(=O)N[C@@H](Cc2ccc3ccccc3c2)C(=O)NC2(C(=O)N[C@@H](CCCCNC(=O)COCCOCCNC(=O)COCCOCCNC(=O)CC[C@H](NC(=O)CCCCCCCCCOc3cccc(C(=O)O)c3)C(=O)O)C(=O)N[C@@H](CC(N)=O)C(=O)N[C@@H](Cc3cccnc3)C(=O)N(C)CC(N)=O)CCOCC2)NC1=O
ring closure, yield after HPLC (from Ac-dLys(PEG2PEG2gEmXOH)-Pen-Asn-Thr-7MeTrp-Lys(Ac)-Pen-AEF-2Nal-THP-Lys(PEG2PEG2gEmXOH)-Asn-3Pya-Sar-NH2, […]): 13%

CC(=O)NCCCC[C@@H]1NC(=O)[C@H](Cc2c[nH]c3c(C)cccc23)NC(=O)[C@H]([C@@H](C)O)NC(=O)[C@H](CC(N)=O)NC(=O)[C@@H](NC(=O)[C@@H](CCCCNC(=O)COCCOCCNC(=O)COCCOCCNC(=O)C[N+](C)(C)CCNC(=O)CC[C@H](NC(=O)CCCCCCCCCCCCCCCCC(=O)O)C(=O)O)NC(C)=O)C(C)(C)SSC(C)(C)[C@@H](C(=O)N[C@@H](Cc2ccc(OCCN)cc2)C(=O)N[C@@H](Cc2ccc3ccccc3c2)C(=O)NC2(C(=O)N[C@@H](CCCCNC(C)=O)C(=O)N[C@@H](CC(N)=O)C(=O)N[C@@H](Cc3cccnc3)C(=O)N(C)CC(N)=O)CCOCC2)NC1=O
ring closure, yield after HPLC (from Ac-dLys(PEG2PEG2SP6gEC18OH)-Pen-Asn-Thr-7MeTrp-Lys(Ac)-Pen-AEF-2Nal-THP-Lys(Ac)-Asn-3Pya-Sar-NH2, 0.343 mM): 35%

CC(=O)NCCCC[C@@H]1NC(=O)[C@H](Cc2c[nH]c3c(C)cccc23)NC(=O)[C@H]([C@@H](C)O)NC(=O)[C@H](CC(N)=O)NC(=O)[C@@H](NC(=O)[C@@H](CCCNC(=N)N)NC(=O)COCCOCCNC(=O)COCCOCCNC(=O)CC[C@H](NC(=O)CCCCCCCCCCCCCCCCC(=O)O)C(=O)O)C(C)(C)SSC(C)(C)[C@@H](C(=O)N[C@@H](Cc2ccc(OCCN)cc2)C(=O)N[C@@H](Cc2ccc3ccccc3c2)C(=O)NC2(C(=O)N[C@@H](CCCCNC(C)=O)C(=O)N[C@@H](CC(N)=O)C(=O)N[C@@H](Cc3cccnc3)C(=O)N(C)CC(N)=O)CCOCC2)NC1=O
ring closure, yield after HPLC (from HOC18gEPEG2PEG2-dArg-Pen-Asn-Thr-7MeTrp-Lys(Ac)-Pen-AEF-2Nal-THP-Lys(Ac)-Asn-3Pya-Sar-NH2, 0.361 mM): 22%

CC(=O)NCCCC[C@@H]1NC(=O)[C@H](Cc2c[nH]c3c(C)cccc23)NC(=O)[C@H]([C@@H](C)O)NC(=O)[C@H](CC(N)=O)NC(=O)[C@@H](NC(=O)[C@@H](CCCNC(=N)N)NC(C)=O)C(C)(C)SSC(C)(C)[C@@H](C(=O)N[C@@H](Cc2ccc(OCCN)cc2)C(=O)N[C@@H](Cc2ccc3ccccc3c2)C(=O)NC2(C(=O)N[C@@H](CCC(=O)O)C(=O)N[C@@H](CC(N)=O)C(=O)N[C@@H](Cc3cccnc3)C(=O)N(C)CC(=O)N[C@@H](CCCCNC(=O)COCCOCCNC(=O)COCCOCCNC(=O)CC[C@H](NC(=O)CCCCCCCCCCCCCCCCC(=O)O)C(=O)O)C(N)=O)CCOCC2)NC1=O
ring closure, yield after HPLC (from Ac-dArg-Pen-Asn-Thr-Trp(7-Me)-Lys(Ac)-Pen-AEF-2Nal-THP-Glu-Asn-3Pya-Sar-Lys(PEG2PEG2gEC18OH)-NH2, 0.345 mM): 5%

CC(=O)NCCCC[C@@H]1NC(=O)[C@H](Cc2c[nH]c3c(C)cccc23)NC(=O)[C@H]([C@@H](C)O)NC(=O)[C@H](CC(N)=O)NC(=O)[C@@H](NC(=O)[C@@H](CCCNC(=N)N)NC(C)=O)C(C)(C)SSC(C)(C)[C@@H](C(=O)N[C@@H](Cc2ccc(OCCN)cc2)C(=O)N[C@@H](Cc2ccc3ccccc3c2)C(=O)NC2(C(=O)N[C@@H](CCC(=O)O)C(=O)N[C@@H](CC(N)=O)C(=O)N[C@@H](Cc3cccnc3)C(=O)N(C)[C@@H](CCCCNC(=O)COCCOCCNC(=O)COCCOCCNC(=O)CC[C@H](NC(=O)CCCCCCCCCCCCCCCCC(=O)O)C(=O)O)C(N)=O)CCOCC2)NC1=O
ring closure, yield after HPLC (from Ac-dArg-Pen-Asn-Thr-7MeTrp-Lys(Ac)-Pen-AEF-2Nal-THP-Glu-Asn-3Pya-MeLys(PEG2PEG2gEC18OH)-NH2, […]): 11%

CC(=O)NCCCC[C@@H]1NC(=O)[C@H](Cc2c[nH]c3c(C)cccc23)NC(=O)[C@H]([C@@H](C)O)NC(=O)[C@H](CC(N)=O)NC(=O)[C@@H](NC(=O)[C@@H](CCCNC(=N)N)NC(C)=O)C(C)(C)SSC(C)(C)[C@@H](C(=O)N[C@@H](Cc2ccc(OCCN)cc2)C(=O)N[C@@H](Cc2ccc3ccccc3c2)C(=O)NC2(C(=O)N[C@@H](CCCCNC(C)=O)C(=O)N[C@@H](CC(N)=O)C(=O)N[C@@H](Cc3cccnc3)C(=O)N(CCOCCOCCNC(=O)COCCOCCNC(=O)CC[C@H](NC(=O)CCCCCCCCCCCCCCCCC(=O)O)C(=O)O)CC(N)=O)CCOCC2)NC1=O
ring closure, yield after HPLC (from Ac-dArg-Pen-Asn-Thr-7MeTrp-Lys(Ac)-Pen-AEF-2Nal-THP-Lys(Ac)-Asn-3Pya-N(PEG2PEG2gEC18OH)Gly-NH2, […]): 19.6%

CC(=O)NCCCC[C@@H]1NC(=O)[C@H](Cc2c[nH]c3c(C)cccc23)NC(=O)[C@H]([C@@H](C)O)NC(=O)[C@H](CC(N)=O)NC(=O)[C@@H](NC(=O)[C@@H](CCCNC(=N)N)NC(C)=O)C(C)(C)SSC(C)(C)[C@@H](C(=O)N[C@@H](Cc2ccc(OCCNC(=O)COCCOCCNC(=O)COCCOCCNC(=O)CC[C@H](NC(=O)CCCCCCCCCCCCCCCCC(=O)O)C(=O)O)cc2)C(=O)N[C@@H](Cc2ccc3ccccc3c2)C(=O)NC2(C(=O)N[C@@H](CCCCNC(C)=O)C(=O)N[C@@H](CC(N)=O)C(=O)N[C@@H](Cc3cccnc3)C(=O)N(C)CC(N)=O)CCOCC2)NC1=O
ring closure, yield after HPLC (from Ac-dArg-Pen-Asn-Thr-7MeTrp-Lys(Ac)-Pen-AEF(PEG2PEG2gEC18OH)-2Nal-THP-Lys(Ac)-Asn-3Pya-Sar-NH2, 0.355 mM): 10%

CCCCCCCCCCCCCCCC(=O)N[C@@H](CCC(=O)NCCCC[C@H](NC(=O)C1(NC(=O)[C@H](Cc2ccc3ccccc3c2)NC(=O)[C@H](Cc2ccc(OCCN)cc2)NC(=O)[C@H]2NC(=O)[C@H](CCCCNC(C)=O)NC(=O)[C@H](Cc3c[nH]c4c(C)cccc34)NC(=O)[C@H]([C@@H](C)O)NC(=O)[C@H](CC(N)=O)NC(=O)[C@@H](NC(=O)[C@@H](CCCCNC(=O)COCCOCCNC(=O)COCCOCCNC(=O)CC[C@H](NC(=O)CCCCCCCCCCCCCCC(=O)O)C(=O)O)NC(C)=O)C(C)(C)SSC2(C)C)CCOCC1)C(=O)N[C@@H](CC(N)=O)C(=O)N[C@@H](Cc1cccnc1)C(=O)N(C)CC(N)=O)C(=O)O
ring closure, yield after HPLC (from Ac-dLys(PEG2PEG2gEC16OH)-Pen-Asn-Thr-7MeTrp-Lys(Ac)-Pen-AEF-2Nal-THP-Lys(gEC16)-Asn-3Pya-Sar-NH2, 1.62 mM): 13%

MeCO-k(PEG2PEG2gE(c)C180H)-Pen*-N-T-7MeW-K(Ac)-Pen*-AEF-2Nal-THP—K(Ac)-N-3Pya-Sar-CONH2
ring closure, yield after HPLC (ascorbic acid quench, 0.34 mM): 20%
